Source: ChEMBL document CHEMBL1201862, “PubChem BioAssay data set” (2004)
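Values below derive from 48-hour exposures of cells grown in 96-well plates, with endpoints linearly interpolated between the two concentrations bracketing the appropriate inhibition level. GI50 is the concentration that inhibits growth by half.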 Activity calls are given as the source filed them. No stated cut-off is given here; in the data, active = GI50 up to about 1.1 µM and inactive = higher.

How the values were obtained:
Assay in all cases: NCI tumour cell line growth inhibition, 48 h
MDA-MB-231 = tested on: MDA-MB-231
Hs-578T = tested on: Hs-578T
DU-145 = tested on: DU-145
SNB-19 = tested on: SNB-19
OVCAR-3 = tested on: OVCAR-3
SW-620 = tested on: SW-620
K562 = tested on: K562
KM12 = tested on: KM12
HL-60 = tested on: HL-60
UO-31 = tested on: UO-31
OVCAR-5 = tested on: OVCAR-5
TK-10 = tested on: TK-10
SR = tested on: SR
ACHN = tested on: ACHN
MCF7 = tested on: MCF7
EKVX = tested on: EKVX
HT-29 = tested on: HT-29
PC-3 = tested on: PC-3
RXF 393 = tested on: RXF 393
NCI-H226 = tested on: NCI-H226

| SMILES | GI50 (MDA-MB-231) | GI50 (Hs-578T) | GI50 (DU-145) | GI50 (SNB-19) | GI50 (OVCAR-3) | GI50 (SW-620) | GI50 (K562) | GI50 (KM12) | GI50 (HL-60) | GI50 (UO-31) | GI50 (OVCAR-5) | GI50 (TK-10) | GI50 (SR) | GI50 (ACHN) | GI50 (MCF7) | GI50 (EKVX) | GI50 (HT-29) | GI50 (PC-3) | GI50 (RXF 393) | GI50 (NCI-H226) |
| --- | --- | --- | --- | --- | --- | --- | --- | --- | --- | --- | --- | --- | --- | --- | --- | --- | --- | --- | --- | --- |
| CN(C)c1ccc(/C=C2\N=C(c3ccccc3)N(c3ccc4c(c3)Sc3cc(N5C(=O)/C(=C/c6ccc(N(C)C)cc6)N=C5c5ccccc5)ccc3N4)C2=O)cc1 | 18.2 µM (inactive) | 27.1 µM (inactive) | 22.1 µM (inactive) | 17.5 µM (inactive) | 12.2 µM (inactive) | 44.7 µM (inactive) | 29.6 µM (inactive) | > 100 µM (inactive) | 27.5 µM (inactive) | 18.2 µM (inactive) | 18.8 µM (inactive) | 17.2 µM (inactive) | 90.6 µM (inactive) | 16.7 µM (inactive) | 17 µM (inactive) | 25.8 µM (inactive) | 54.7 µM (inactive) | 16.9 µM (inactive) | – | – |
| CN1N=C(c2ccccc2)C(C(c2ccccc2[N+](=O)[O-])C2C(=O)N(C)N=C2c2ccccc2)C1=O (stereo not given) | > 100 µM (inactive) | > 73.1 µM (inactive) | > 100 µM (inactive) | > 100 µM (inactive) | 44.6 µM (inactive) | 99.3 µM (inactive) | 33.9 µM (inactive) | > 75 µM (inactive) | 18.7 µM (inactive) | > 100 µM (inactive) | > 100 µM (inactive) | > 100 µM (inactive) | – | > 100 µM (inactive) | 47.1 µM (inactive) | > 100 µM (inactive) | > 68.7 µM (inactive) | 67.5 µM (inactive) | 52 µM (inactive) | > 51.1 µM (inactive) |
| CC(=O)O[C@H]1C[C@@H](OC(C)=O)[C@@](C)(O)[C@@H]2[C@@H](OC(C)=O)[C@@]3(O)[C@H](/C=C(/CO)[C@H]4O[C@H]4[C@@H](OC(C)=O)[C@@]12C)OC(=O)[C@@H]3C | 7.06 µM (inactive) | 8.43 µM (inactive) | 5.27 µM (inactive) | > 25 µM (inactive) | 5.51 µM (inactive) | 11.5 µM (inactive) | 17.7 µM (inactive) | 13.5 µM (inactive) | – | 22.5 µM (inactive) | > 25 µM (inactive) | > 25 µM (inactive) | – | 16.3 µM (inactive) | – | > 25 µM (inactive) | 11 µM (inactive) | 6.04 µM (inactive) | 2.08 µM (inactive) | 9.73 µM (inactive) |
| NS(=O)(=O)c1nnc(/N=C(/CCC(=O)O)C(=O)O)s1 | > 100 µM (inactive) | > 100 µM (inactive) | > 100 µM (inactive) | > 100 µM (inactive) | > 100 µM (inactive) | > 100 µM (inactive) | > 100 µM (inactive) | 20.5 µM (inactive) | > 100 µM (inactive) | > 100 µM (inactive) | > 100 µM (inactive) | > 100 µM (inactive) | > 100 µM (inactive) | > 100 µM (inactive) | > 100 µM (inactive) | > 100 µM (inactive) | > 100 µM (inactive) | > 100 µM (inactive) | – | > 100 µM (inactive) |
| O=C1C2C=CC1C1C(=O)OC(=O)C21 (stereo not given) | > 100 µM (inactive) | > 100 µM (inactive) | > 100 µM (inactive) | > 100 µM (inactive) | > 100 µM (inactive) | > 100 µM (inactive) | > 100 µM (inactive) | > 100 µM (inactive) | > 100 µM (inactive) | > 100 µM (inactive) | > 100 µM (inactive) | > 100 µM (inactive) | > 100 µM (inactive) | > 100 µM (inactive) | > 100 µM (inactive) | > 100 µM (inactive) | > 100 µM (inactive) | > 100 µM (inactive) | – | > 100 µM (inactive) |
| CC(=O)/C=C1\Nc2sc(C)c(C)c2C(=O)S1 | 88.3 µM (inactive) | 20.5 µM (inactive) | 69.7 µM (inactive) | > 100 µM (inactive) | 44.1 µM (inactive) | 63.5 µM (inactive) | 60.4 µM (inactive) | 29.2 µM (inactive) | 32.1 µM (inactive) | 54 µM (inactive) | > 100 µM (inactive) | 80.4 µM (inactive) | – | 74.8 µM (inactive) | 29.6 µM (inactive) | 24.9 µM (inactive) | 34.1 µM (inactive) | 25.4 µM (inactive) | > 100 µM (inactive) | 29.2 µM (inactive) |
| Cc1cccc2sc(NC(=O)NS(=O)(=O)n3cnc4ccccc43)nc12 | 27 µM (inactive) | 13.8 µM (inactive) | 32.8 µM (inactive) | 38 µM (inactive) | 22.3 µM (inactive) | 28.4 µM (inactive) | – | 30.4 µM (inactive) | 31.5 µM (inactive) | 22.2 µM (inactive) | 25.9 µM (inactive) | 35.6 µM (inactive) | – | 32.8 µM (inactive) | 16.1 µM (inactive) | 1.67 µM (inactive) | 33.9 µM (inactive) | 28.6 µM (inactive) | 15.9 µM (inactive) | 59 µM (inactive) |
| Clc1cc2c(cc1Cl)CC(NCCN1CCCC1)CC2 (stereo not given) | 15.1 µM (inactive) | 21.2 µM (inactive) | 14.7 µM (inactive) | 20.5 µM (inactive) | 17.1 µM (inactive) | 18.9 µM (inactive) | 10.8 µM (inactive) | 15.2 µM (inactive) | 14.6 µM (inactive) | 11.1 µM (inactive) | 14.6 µM (inactive) | 14.4 µM (inactive) | 10.6 µM (inactive) | 17.9 µM (inactive) | 15.6 µM (inactive) | 18.7 µM (inactive) | 4.35 µM (inactive) | 15.1 µM (inactive) | – | 15.2 µM (inactive) |
| Cc1cc(Nc2ccc(S(=O)(=O)O)cc2)c2ccccc2n1 | > 100 µM (inactive) | > 100 µM (inactive) | > 100 µM (inactive) | > 100 µM (inactive) | > 100 µM (inactive) | > 100 µM (inactive) | > 100 µM (inactive) | > 100 µM (inactive) | > 100 µM (inactive) | > 100 µM (inactive) | > 100 µM (inactive) | > 100 µM (inactive) | > 100 µM (inactive) | > 100 µM (inactive) | > 100 µM (inactive) | > 100 µM (inactive) | > 100 µM (inactive) | > 100 µM (inactive) | – | > 100 µM (inactive) |
| COc1ccccc1/C=C/c1cnccn1 | > 10 µM (inactive) | > 10 µM (inactive) | > 10 µM (inactive) | > 10 µM (inactive) | > 10 µM (inactive) | > 10 µM (inactive) | > 10 µM (inactive) | > 10 µM (inactive) | > 10 µM (inactive) | > 10 µM (inactive) | > 10 µM (inactive) | > 10 µM (inactive) | – | > 10 µM (inactive) | > 10 µM (inactive) | > 10 µM (inactive) | > 10 µM (inactive) | > 10 µM (inactive) | > 10 µM (inactive) | > 10 µM (inactive) |
| C[C@]12Cc3cnc(-c4ccccc4)nc3C[C@@H]1CC[C@@H]1[C@@H]2CC[C@@]2(C)[C@H]1CC[C@]2(C)O | 18.8 µM (inactive) | 17.4 µM (inactive) | 17.9 µM (inactive) | 18.5 µM (inactive) | 23.5 µM (inactive) | 21.2 µM (inactive) | 2.96 µM (inactive) | 13.9 µM (inactive) | 17.9 µM (inactive) | 3.03 µM (inactive) | 14.3 µM (inactive) | 23.2 µM (inactive) | 6.59 µM (inactive) | 14.2 µM (inactive) | 19.3 µM (inactive) | 25.2 µM (inactive) | 4.15 µM (inactive) | 13.9 µM (inactive) | – | 26.1 µM (inactive) |
| COC(=O)C1Cc2c([nH]c3ccccc23)-c2[nH]c3ccccc3c2CC(NC(C)=O)C(=O)N2CCCC2C(=O)N1 (stereo not given) | > 100 µM (inactive) | > 100 µM (inactive) | > 100 µM (inactive) | > 100 µM (inactive) | > 100 µM (inactive) | > 100 µM (inactive) | > 100 µM (inactive) | – | – | > 100 µM (inactive) | > 100 µM (inactive) | > 100 µM (inactive) | > 100 µM (inactive) | > 100 µM (inactive) | > 100 µM (inactive) | > 100 µM (inactive) | > 100 µM (inactive) | > 100 µM (inactive) | > 100 µM (inactive) | 0.176 µM (active) |
| COCC([C@@H](O)C(O)C(=O)NCC[C@@H](C)c1nc(/C=C/CC2OC3(C[C@H](O)C2C)OC(C(C[C@H](O)C(C)[C@H](O)C(C)/C=C(C)/C(C)=C/C=C/C(C)=C/C#N)OC)[C@@H](OP(=O)(O)O)C3(C)C)co1)N(C)C (stereo not given in full) | 0.000242 µM (active) | 0.000196 µM (active) | 0.000182 µM (active) | 0.000195 µM (active) | 0.000186 µM (active) | 0.000182 µM (active) | 0.000296 µM (active) | 0.000184 µM (active) | 0.00048 µM (active) | 0.00118 µM (active) | 0.000188 µM (active) | 0.000115 µM (active) | – | 0.000199 µM (active) | 0.000184 µM (active) | 0.000172 µM (active) | 0.000162 µM (active) | 0.000179 µM (active) | – | 0.00015 µM (active) |
| CC1=C(/C=C/C(C)=C/C=C/C(C)=C/C(=O)Nc2ccc(O)cc2)C(C)(C)CCC1 [FENRETINIDE] | 2.95 µM (inactive) | 3.33 µM (inactive) | 7.6 µM (inactive) | 6.5 µM (inactive) | 2.55 µM (inactive) | 5.48 µM (inactive) | 2.69 µM (inactive) | 3.92 µM (inactive) | 0.893 µM (active) | 3.26 µM (inactive) | 10.6 µM (inactive) | 16.1 µM (inactive) | – | 4.19 µM (inactive) | 2.65 µM (inactive) | 9.25 µM (inactive) | 2.63 µM (inactive) | 3.13 µM (inactive) | 2.04 µM (inactive) | 5.13 µM (inactive) |
